Reference: patent publication US10815230B2, “Casein kinase 1 delta inhibitor” (ELECTROPHORETICS LIMITED, priority 2015, dated 2020)
Where “and” joins values, the source holds several entries; their conditions need not be identical. Identical values can stand only once. Like-named read-outs stand apart in the source and are kept apart here.

What was measured:
[1] = target: DCAMKL1 (Homo sapiens, UniProt O15075); assay: KINOMEscan binding assay; conditions: read-out: % Ctrl @ 10000 nM
[2] = target: PFTK1 (Homo sapiens, UniProt O94921); assay: KINOMEscan binding assay; conditions: read-out: % Ctrl @ 10000 nM
[3] = target: FLT3 (N841I) (Homo sapiens, UniProt P36888, N841I); assay: KINOMEscan binding assay; conditions: read-out: % Ctrl @ 10000 nM
[4] = target: EPHA1 (Homo sapiens, UniProt P21709); assay: KINOMEscan binding assay; conditions: read-out: % Ctrl @ 10000 nM
[5] = target: ARK5 (Homo sapiens, UniProt O60285); assay: KINOMEscan binding assay; conditions: read-out: % Ctrl @ 10000 nM
[6] = target: EPHB1 (Homo sapiens, UniProt P54762); assay: KINOMEscan binding assay; conditions: read-out: % Ctrl @ 10000 nM
[7] = target: PIM3 (Homo sapiens, UniProt Q86V86); assay: KINOMEscan binding assay; conditions: read-out: % Ctrl @ 10000 nM
[8] = target: JNK2 (Homo sapiens, UniProt P45984); assay: KINOMEscan binding assay; conditions: read-out: % Ctrl @ 10000 nM
[9] = target: IRAK4 (Homo sapiens, UniProt Q9NWZ3); assay: KINOMEscan binding assay; conditions: read-out: % Ctrl @ 10000 nM
[10] = target: EGFR (L858R, T790M) (Homo sapiens, UniProt P00533, L858R/T790M); assay: KINOMEscan binding assay; conditions: read-out: % Ctrl @ 10000 nM
[11] = target: ERBB3 (Homo sapiens, UniProt P21860); assay: KINOMEscan binding assay; conditions: read-out: % Ctrl @ 10000 nM
Sequence of ERBB3 (P21860 20-1342): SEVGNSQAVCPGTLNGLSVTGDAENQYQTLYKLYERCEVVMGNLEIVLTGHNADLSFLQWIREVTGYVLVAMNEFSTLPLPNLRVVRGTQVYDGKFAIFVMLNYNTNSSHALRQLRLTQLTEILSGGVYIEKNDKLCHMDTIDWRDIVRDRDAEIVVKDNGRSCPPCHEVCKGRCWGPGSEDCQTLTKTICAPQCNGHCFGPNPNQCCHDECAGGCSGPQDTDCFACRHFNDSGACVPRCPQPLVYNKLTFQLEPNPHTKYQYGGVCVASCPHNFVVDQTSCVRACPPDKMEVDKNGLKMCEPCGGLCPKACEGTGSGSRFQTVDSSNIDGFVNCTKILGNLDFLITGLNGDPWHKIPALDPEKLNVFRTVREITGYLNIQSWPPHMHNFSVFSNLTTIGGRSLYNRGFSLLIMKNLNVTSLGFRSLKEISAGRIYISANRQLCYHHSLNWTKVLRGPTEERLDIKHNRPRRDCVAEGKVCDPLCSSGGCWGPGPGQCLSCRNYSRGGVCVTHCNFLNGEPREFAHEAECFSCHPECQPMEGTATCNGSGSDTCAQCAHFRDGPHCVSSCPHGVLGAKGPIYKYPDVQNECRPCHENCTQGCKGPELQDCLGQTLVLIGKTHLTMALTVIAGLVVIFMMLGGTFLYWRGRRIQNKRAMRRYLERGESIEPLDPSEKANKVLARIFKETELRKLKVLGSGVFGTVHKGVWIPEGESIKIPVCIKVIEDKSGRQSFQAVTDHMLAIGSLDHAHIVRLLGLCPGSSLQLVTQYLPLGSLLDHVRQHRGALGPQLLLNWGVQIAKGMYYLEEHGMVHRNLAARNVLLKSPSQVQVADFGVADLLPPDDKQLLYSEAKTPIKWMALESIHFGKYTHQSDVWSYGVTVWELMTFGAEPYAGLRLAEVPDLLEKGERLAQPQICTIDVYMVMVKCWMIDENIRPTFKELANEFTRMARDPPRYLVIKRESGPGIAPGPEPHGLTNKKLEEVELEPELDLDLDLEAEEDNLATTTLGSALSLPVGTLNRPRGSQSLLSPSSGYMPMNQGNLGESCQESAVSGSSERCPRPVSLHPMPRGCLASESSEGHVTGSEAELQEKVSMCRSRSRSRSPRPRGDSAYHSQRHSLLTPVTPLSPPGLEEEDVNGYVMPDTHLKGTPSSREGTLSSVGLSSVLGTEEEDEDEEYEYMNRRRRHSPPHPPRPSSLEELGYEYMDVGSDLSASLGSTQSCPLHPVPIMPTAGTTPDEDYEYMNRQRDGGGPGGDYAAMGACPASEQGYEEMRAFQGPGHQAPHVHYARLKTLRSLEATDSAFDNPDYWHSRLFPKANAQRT

[12] = target: HIPK1 (Homo sapiens, UniProt Q86Z02); assay: KINOMEscan binding assay; conditions: read-out: % Ctrl @ 10000 nM
[13] = target: JAK2 (JH1domain-catalytic) (Homo sapiens, UniProt O60674); assay: KINOMEscan binding assay; conditions: read-out: % Ctrl @ 10000 nM
[14] = target: PRKCQ (Homo sapiens, UniProt Q04759); assay: KINOMEscan binding assay; conditions: read-out: % Ctrl @ 10000 nM
[15] = target: IRAK3 (Homo sapiens, UniProt Q9Y616); assay: KINOMEscan binding assay; conditions: read-out: % Ctrl @ 10000 nM
[16] = target: ERN1 (Homo sapiens, UniProt O75460); assay: KINOMEscan binding assay; conditions: read-out: % Ctrl @ 10000 nM
[17] = Determination of compound in plasma and brain by LC-MS/MS; assay type: in vivo; conditions: TMHT mice of experiment 5.5, 30 mg/kg orally for 8 weeks; for concentration in cortex: cortex at sacrifice; for concentration in plasma: plasma at sacrifice; for concentration in rest of brain: rest of brain at sacrifice; for concentration at 8 weeks: TMHT, mouse, oral, 30 mg/kg
Method: Plasma and brain samples derived from the experiments in 5.5 were pooled from single time point and were analysed for the presence and concentration of Comparative Compound 324 and Compound A by LC-MS/MS after protein precipitation over the calibration range of 0.5-10,000 ng/mL. Chrysin (Sigma®), control mouse plasma and brain (obtained from a commercial supplier) were used as internal standards.
All instrument control, data collection, peak area integration and storage were performed using Thermo Finnigan TSQ Quantum Ultra Mass Spectrometer in conjunction with LCQuan software (v.2.5.6). The mass spectrometer response (peak area ratio of analyte to internal standard) of each calibration standard was calculated by Watson LIMS (v. 7.2) and plotted against the nominal concentration. A weighted least square quadratic regression analysis was used to calculate an equation of the calibration line using one of the standard fits in Watson LIMS. Concentration of Comparative Compound 324 and Compound A in the plasma and brain samples were back calculated from the calibration lines to 3 significant figures. All results reported are from samples that passed the following criteria:
[formula] • At least 7 calibration standards within ±20% RE of their target concentrations. • At least 66% of QC samples within ±20% RE of their respective target values. Within at least one acceptable at each level when n=3 and two when n=6.
The analytical method was as summarised below in Table 14:
In total 32 samples were analysed. Quality control (QC) samples at concentration of 10, 100 and 1000 ng/mL were freshly prepared on the day of the analysis.

[18] = target: T1, ULK3 (Homo sapiens, UniProt Q6PHR2); assay: KINOMEscan binding assay; conditions: read-out: % Ctrl @ 10000 nM
T1 construct: purchased DiscoveRx (KINOMEscan, LeadHunter Discovery services)

[19] = target: PLK3 (Homo sapiens, UniProt Q9H4B4); assay: KINOMEscan binding assay; conditions: read-out: % Ctrl @ 10000 nM
[20] = target: MARK4 (Homo sapiens, UniProt Q96L34); assay: KINOMEscan binding assay; conditions: read-out: % Ctrl @ 10000 nM
[21] = target: EPHA4 (Homo sapiens, UniProt P54764); assay: KINOMEscan binding assay; conditions: read-out: % Ctrl @ 10000 nM
Sequence of EPHA4 (P54764 20-986): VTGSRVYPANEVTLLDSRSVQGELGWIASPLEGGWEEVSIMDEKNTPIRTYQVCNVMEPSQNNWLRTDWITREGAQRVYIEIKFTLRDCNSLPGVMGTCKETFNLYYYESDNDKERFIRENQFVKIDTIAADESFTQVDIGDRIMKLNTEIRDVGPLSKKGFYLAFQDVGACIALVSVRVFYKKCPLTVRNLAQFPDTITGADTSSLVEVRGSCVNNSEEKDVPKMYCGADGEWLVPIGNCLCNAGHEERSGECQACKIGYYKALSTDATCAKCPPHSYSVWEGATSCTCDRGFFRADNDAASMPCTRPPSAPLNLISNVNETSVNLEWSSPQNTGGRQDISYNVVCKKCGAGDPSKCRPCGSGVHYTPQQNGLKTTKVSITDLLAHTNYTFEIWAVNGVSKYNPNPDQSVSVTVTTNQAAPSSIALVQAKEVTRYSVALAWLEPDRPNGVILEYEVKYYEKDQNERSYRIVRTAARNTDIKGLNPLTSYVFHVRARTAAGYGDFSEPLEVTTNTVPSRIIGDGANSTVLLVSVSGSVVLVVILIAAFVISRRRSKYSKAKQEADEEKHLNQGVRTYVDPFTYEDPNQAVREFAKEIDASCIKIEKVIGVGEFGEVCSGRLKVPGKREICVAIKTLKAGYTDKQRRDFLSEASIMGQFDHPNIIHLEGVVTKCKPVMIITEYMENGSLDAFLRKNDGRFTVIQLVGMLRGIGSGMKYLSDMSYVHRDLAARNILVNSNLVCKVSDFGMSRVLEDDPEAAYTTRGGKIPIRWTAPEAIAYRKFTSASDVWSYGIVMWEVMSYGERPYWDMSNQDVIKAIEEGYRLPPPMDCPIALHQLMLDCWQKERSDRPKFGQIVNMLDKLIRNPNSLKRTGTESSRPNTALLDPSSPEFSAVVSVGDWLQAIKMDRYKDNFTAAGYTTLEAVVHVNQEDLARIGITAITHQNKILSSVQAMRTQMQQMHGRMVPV

[22] = target: TIE2 (Homo sapiens, UniProt Q02763); assay: KINOMEscan binding assay; conditions: read-out: % Ctrl @ 10000 nM
Sequence of TIE2 (Q02763 23-1124): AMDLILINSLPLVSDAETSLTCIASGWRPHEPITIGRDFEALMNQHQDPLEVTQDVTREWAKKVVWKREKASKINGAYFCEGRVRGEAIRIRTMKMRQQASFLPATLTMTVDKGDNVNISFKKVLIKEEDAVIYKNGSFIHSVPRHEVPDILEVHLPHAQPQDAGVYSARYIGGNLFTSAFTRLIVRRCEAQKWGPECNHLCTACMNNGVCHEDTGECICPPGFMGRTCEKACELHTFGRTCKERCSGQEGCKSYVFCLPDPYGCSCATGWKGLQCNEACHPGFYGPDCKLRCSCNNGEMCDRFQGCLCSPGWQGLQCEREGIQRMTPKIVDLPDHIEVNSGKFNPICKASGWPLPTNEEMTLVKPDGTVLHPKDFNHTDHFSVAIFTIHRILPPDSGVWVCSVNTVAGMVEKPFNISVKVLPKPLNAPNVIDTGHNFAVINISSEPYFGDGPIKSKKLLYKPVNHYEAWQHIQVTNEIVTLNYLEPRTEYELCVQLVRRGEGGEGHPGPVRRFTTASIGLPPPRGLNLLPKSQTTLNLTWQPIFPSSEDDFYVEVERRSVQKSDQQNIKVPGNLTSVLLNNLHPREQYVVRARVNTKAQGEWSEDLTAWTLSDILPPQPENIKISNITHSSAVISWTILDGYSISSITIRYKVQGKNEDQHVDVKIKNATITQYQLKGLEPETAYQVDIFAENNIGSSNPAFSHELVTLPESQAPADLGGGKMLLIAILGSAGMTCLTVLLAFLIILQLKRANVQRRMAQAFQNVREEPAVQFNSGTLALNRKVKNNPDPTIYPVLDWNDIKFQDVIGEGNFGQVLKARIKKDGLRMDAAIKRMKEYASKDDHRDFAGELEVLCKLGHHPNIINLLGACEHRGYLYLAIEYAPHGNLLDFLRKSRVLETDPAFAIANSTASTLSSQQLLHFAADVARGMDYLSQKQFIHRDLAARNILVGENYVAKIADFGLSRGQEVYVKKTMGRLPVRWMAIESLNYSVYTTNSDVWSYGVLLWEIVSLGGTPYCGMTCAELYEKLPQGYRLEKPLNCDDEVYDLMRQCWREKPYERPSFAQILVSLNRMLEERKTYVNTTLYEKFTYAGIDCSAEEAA

[23] = target: ROCK1 (Homo sapiens, UniProt Q13464); assay: KINOMEscan binding assay; conditions: read-out: % Ctrl @ 10000 nM
[24] = target: RIPK4 (Homo sapiens, UniProt P57078); assay: KINOMEscan binding assay; conditions: read-out: % Ctrl @ 10000 nM
[25] = target: EIF2AK1 (Homo sapiens, UniProt Q9BQI3); assay: KINOMEscan binding assay; conditions: read-out: % Ctrl @ 10000 nM
[26] = target: BRAF (V600E) (Homo sapiens, UniProt P15056, V600E); assay: KINOMEscan binding assay; conditions: read-out: % Ctrl @ 10000 nM
[27] = target: MARK1 (Homo sapiens, UniProt Q9P0L2); assay: KINOMEscan binding assay; conditions: read-out: % Ctrl @ 10000 nM
Sequence of MARK1 (Q9P0L2 whole entry): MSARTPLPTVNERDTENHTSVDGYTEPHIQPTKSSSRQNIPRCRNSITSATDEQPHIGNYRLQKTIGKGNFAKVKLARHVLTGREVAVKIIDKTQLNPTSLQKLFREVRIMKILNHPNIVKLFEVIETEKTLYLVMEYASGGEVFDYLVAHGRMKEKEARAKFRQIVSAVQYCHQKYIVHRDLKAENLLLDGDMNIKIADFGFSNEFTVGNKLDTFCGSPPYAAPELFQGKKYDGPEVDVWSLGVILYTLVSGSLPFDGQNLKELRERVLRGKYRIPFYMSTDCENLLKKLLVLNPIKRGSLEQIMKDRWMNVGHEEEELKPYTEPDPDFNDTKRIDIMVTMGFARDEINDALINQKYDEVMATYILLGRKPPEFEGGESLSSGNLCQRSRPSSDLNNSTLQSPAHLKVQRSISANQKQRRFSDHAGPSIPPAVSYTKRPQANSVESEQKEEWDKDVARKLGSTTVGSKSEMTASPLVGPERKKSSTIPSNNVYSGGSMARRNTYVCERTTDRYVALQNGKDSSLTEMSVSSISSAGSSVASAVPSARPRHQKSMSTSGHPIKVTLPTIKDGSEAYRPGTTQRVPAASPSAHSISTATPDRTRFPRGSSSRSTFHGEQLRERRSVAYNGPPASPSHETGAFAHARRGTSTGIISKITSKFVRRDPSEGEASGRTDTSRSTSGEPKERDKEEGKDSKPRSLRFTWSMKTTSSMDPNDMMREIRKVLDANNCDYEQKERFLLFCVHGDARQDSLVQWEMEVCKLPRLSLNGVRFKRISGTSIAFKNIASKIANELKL

[28] = target: PRKCH (Homo sapiens, UniProt P24723); assay: KINOMEscan binding assay; conditions: read-out: % Ctrl @ 10000 nM
[29] = hippocampus at sacrifice, LC-MS/MS, one value per mouse

Sequence of DCAMKL1 (O15075 whole entry): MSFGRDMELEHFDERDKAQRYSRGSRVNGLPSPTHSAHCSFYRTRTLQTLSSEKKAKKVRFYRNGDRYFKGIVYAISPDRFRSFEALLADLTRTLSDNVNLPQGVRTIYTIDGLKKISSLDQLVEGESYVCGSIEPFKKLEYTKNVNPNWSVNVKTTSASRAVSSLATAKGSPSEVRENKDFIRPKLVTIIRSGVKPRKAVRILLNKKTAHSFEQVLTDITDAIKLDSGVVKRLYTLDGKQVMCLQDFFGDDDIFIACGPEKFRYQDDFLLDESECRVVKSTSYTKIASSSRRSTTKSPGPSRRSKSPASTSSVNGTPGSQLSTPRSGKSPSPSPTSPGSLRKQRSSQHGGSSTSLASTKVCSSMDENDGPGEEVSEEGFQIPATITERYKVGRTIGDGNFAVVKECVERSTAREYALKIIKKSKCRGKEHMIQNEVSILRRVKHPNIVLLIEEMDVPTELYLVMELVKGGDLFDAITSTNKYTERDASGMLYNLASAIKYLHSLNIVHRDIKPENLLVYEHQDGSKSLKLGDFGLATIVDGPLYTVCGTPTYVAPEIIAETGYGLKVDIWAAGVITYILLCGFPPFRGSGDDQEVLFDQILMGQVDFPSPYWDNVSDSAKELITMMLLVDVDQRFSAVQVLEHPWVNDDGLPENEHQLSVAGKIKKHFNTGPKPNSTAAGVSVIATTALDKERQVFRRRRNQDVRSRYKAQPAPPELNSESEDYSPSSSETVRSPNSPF

Compound	remaining binding at 10 µM [1]	remaining binding at 10 µM [2]	remaining binding at 10 µM [3]	remaining binding at 10 µM [4]	remaining binding at 10 µM [5]	remaining binding at 10 µM [6]	remaining binding at 10 µM [7]	remaining binding at 10 µM [8]	remaining binding at 10 µM [9]	remaining binding at 10 µM [10]	remaining binding at 10 µM [11]	remaining binding at 10 µM [12]	remaining binding at 10 µM [13]	remaining binding at 10 µM [14]	remaining binding at 10 µM [15]	remaining binding at 10 µM [16]	concentration in cortex ([17]; LC-MS/MS, one value per mouse)	concentration in hippocampus [17, 29]	concentration in plasma ([17]; LC-MS/MS, one value per mouse)	concentration in rest of brain ([17]; LC-MS/MS, one value per mouse)	further results
Nc1ncc(-c2nc3ccccc3o2)c(-c2ccncc2)n1 [Comparative Compound 324, 5-(1,3-benzoxazol-2-yl)-4-(pyridine-4-yl)pyrimidin-2-amine]	41%	96%	83%	83%	100%	86%	94%	18%	100%	51%	92%	64%	98%	100%	90%	88%	14.3 ng/mL and 108 ng/mL and 1.98 ng/mL and 10.5 ng/mL and 10.7 ng/mL and 0.536 ng/mL and 15.3 ng/mL and 6.41 ng/mL	11.9 ng/mL and 87.0 ng/mL and BLQ (2×) and 12.6 ng/mL and 11.5 ng/mL and 15.1 ng/mL and 6.12 ng/mL	295 ng/mL and 1450 ng/mL and 34.2 ng/mL and 230 ng/mL and 225 ng/mL and 10.5 ng/mL and 287 ng/mL and 138 ng/mL	16.2 ng/mL and 122 ng/mL and 9.97 ng/mL and 9.75 ng/mL and 10.8 ng/mL and 1.12 ng/mL and 16.0 ng/mL and 7.09 ng/mL	remaining binding at 10 µM [18]: 100%; remaining binding at 10 µM [19]: 99%; remaining binding at 10 µM [20]: 100%; remaining binding at 10 µM [21]: 100%; remaining binding at 10 µM [22]: 98%; remaining binding at 10 µM [23]: 96%; remaining binding at 10 µM [24]: 65%; remaining binding at 10 µM [25]: 83%; remaining binding at 10 µM [26]: 59%; remaining binding at 10 µM [27]: 100%; remaining binding at 10 µM [28]: 99%
CNc1c(C(N)=O)c2ccccn2c1C(=O)c1ccc(F)cc1 [Compound A, 2-methyl-amino-3-[(4-fluorophenyl)carbonyl]indolizine-1-carboxamide]	44%	77%	87%	72%	85%	69%	90%	45%	98%	88%	62%	51%	90%	88%	60%	84%	BLQ (2×) and 12.6 ng/mL and 9.67 ng/mL and 14.9 ng/mL and 8.92 ng/mL and 2.51 ng/mL and 17.7 ng/mL	BLQ (3×) and 8.23 ng/mL and 12.8 ng/mL and 9.33 ng/mL and 10.3 ng/mL	12.6 ng/mL and 207 ng/mL and 203 ng/mL and 274 ng/mL and 188 ng/mL and 16.9 ng/mL and 319 ng/mL and 25.6 ng/mL	BLQ (2×) and 12.7 ng/mL and 10.5 ng/mL and 14.1 ng/mL and 12.9 ng/mL and 19.0 ng/mL and 2.66 ng/mL	concentration at 8 weeks ([17]; brain, SEM 1.05, read-out: concentration in the brain (Mean ±SEM)): ~11.1 ng/mL; concentration at 8 weeks ([17]; hippocampus, hippocampus at sacrifice, LC-MS/MS, one value per mouse, read-out: concentration in hippocampus): 10.5 ng/mL; remaining binding at 10 µM [18]: 100%; remaining binding at 10 µM [19]: 85%; remaining binding at 10 µM [20]: 100%; remaining binding at 10 µM [21]: 98%; remaining binding at 10 µM [22]: 100%; remaining binding at 10 µM [23]: 100%; remaining binding at 10 µM [24]: 78%; remaining binding at 10 µM [25]: 86%; remaining binding at 10 µM [26]: 86%; remaining binding at 10 µM [27]: 99%; remaining binding at 10 µM [28]: 95%
